Assay results as given in patent US4746349A, “Method and compositions for suppressing the nitrification of ammonium in plant growth medium” (American Cyanamid Company, priority 1986, dated 1988).
Several values for one entry are separate records, joined by “and”; a condition that tells them apart may be missing. Identical values can stand only once.

Columns and labels:
[1] = tested on: Nitrobacter spp.; assay: Nitrite nitrogen in ammonium amended soil incubated at 25° C.; settings: 0.50 ppm, soil 25° C., 200 ppm N
Description: Determination of nitrite nitrogen and nitrate nitrogen in soil prepared in Example 1 above, which is amended with 200 ppm of nitrogen as aqueous ammonium sulfate, […], is determined using the nitrite and nitrate analysis of the American Organization of Analytical Chemists (AOAC pp. 653-655).

[2] = tested on: Nitrosomonas spp.; assay: Nitrification of ammonium in soil incubated at 25° C. (ammonium recovery, nitrate accumulation); settings: soil 25° C.; for Nitrification (percent nitrified) / Concentration of nitrate nitrogen / Recovery of Ammonium Nitrogen: 0.50 ppm; for Concentration of nitrate nitrogen / Recovery of Ammonium Nitrogen: 200 ppm N
How it was run: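 Silt loam soil (100 g, low residual N) at 50% water saturation given ammonium sulfate at 200 ppm N plus test compound at 0.10–0.50 ppm, duplicates, incubated 25 °C for up to 20 weeks. Inorganic N extracted with 2M KCl; ammonium, nitrite and nitrate measured by steam distillation.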

[3] = tested on: corn (Pioneer 3352); assay: Field evaluation: yield of corn, sandy loam plots; assay type: in vivo; settings: sandy loam, chemical 0.56 kg/ha
Description: (§1) Field Evaluation: Field evaluations are based on the N content of corn leaf tissue and grain yield utilizing two soil types. Replicate (4X) field plots are established at two different locations, one having (I) silt loam soil and one (II) with sandy loam soil. These soils had been previously cropped to non-fertilized corn to reduce the level of residual N. Maduramicin monoammonium salt is applied (0.25, 0.125, 0.07 ppm) with NH3 (84 or 168 kg N/ha) through a "downstream" by an injection system into silt loam plots. Nitrapyrin (0.25 ppm=0.56 kg a.i./ha), nitrogen checks, benzyl alcohol (1.16L/ha) (BA) and a O nitrogen check are included for comparison. Individual replicate plot sizes are 3.04M×22.8M (4, 76-cm corn rows×22.8M long) Anhydrous ammonia are injected on 76-cm centers.
Plots are then planted with corn the day following treatment. Dekalb T2000 is planted 10 May on silt loam plots and Pioneer 3352 is planted 11 May in sandy loam plots.
(§2) Corn ear leaf tissues collected at silking on silt loam plots or 60 days post silking (on silt loam and sandy loam plots) are collected from each plot and assayed for total N (AOAC procedures). Grain yields are determined by harvesting the two center rows×15.2 m of each plot.

[4] = tested on: corn (Dekalb T2000, B73×LH 38); assay: Field evaluation: yield of corn, silt loam location; assay type: in vivo; settings: chemical 0.56 kg/ha
Description: as §1
(§3) Urea, treated or non-treated with Maduramicin monoammonium salt is broadcast on the surface of sandy loam plots. Plots are then planted with corn the day following treatment. Dekalb T2000 is planted 10 May on silt loam plots and Pioneer 3352 is planted 11 May in sandy loam plots.
as §2

[5] = tested on: Nitrosomonos; assay: Nitrification of ammonium amended field soil incubated at 38° C. (ammonium recovery, nitrate); settings: 0.50 ppm, soil 38° C., 200 ppm N
Description: (§4) Determination of Nitrification Inhibition of Soil amended with 200 ppm of nitrogen as ammonium sulfate and 0.5 ppm of Nitrapyrin or 0.5 ppm of Maduramicin, monoammonium salt.
(§5) Soil samples prepared as described in Example 1 above are incubated at 38° C. for 20 weeks. Samples are taken at intervals during the 20 week period, extracted with 2M KCl (10:1 v/w), and assayed for ammonium nitrite and nitrate by standard steam distillation methods.

[6] = tested on: Nitrabacter; assay: Nitrite in ammonium amended field soil incubated at 38° C.; settings: 0.50 ppm, soil 38° C., 200 ppm N
Description: as §4, §5

[7] = tested on: corn (Dekalb T2000, B73×LH 38); assay: Field evaluation: corn ear leaf tissue nitrogen, silt loam plots; assay type: in vivo; settings: for Corn Leaf Tissue Analysis (total N): inhibitor 0.56 kg/ha, ear leaf at silking
Description: as §1, §3, §2

[8] = tested on: Urease; assay: Urease activity of urea amended soil, 38° C., 24 hrs; assay type: biochemical
Description: Urease activity: Five grams (5 g) oven-dry soil is treated with 5 ml of aqueous urea solution (1000 ug/g soil), with or without the test compound, and incubated in 65 ml screw-capped glass bottles at 38° C. for 24 hrs. Three replicates of each treatment are established. Phenylphosphorodiamide (PPD) is used as a urease inhibitor for comparison with Maduramicin monoammonium salt. Urea remaining is determined after extracting the soil for 60 minutes (with shaking) with 50 ml of 2M KCl containing 0.5 ug/ml of phenylmercuric acetate and filtering the soil suspension. Urea in the extract is determined colorimetrically (Douglas & Bremner, 1970). The percentage inhibition is calculated from (A-B)/(C-B) X 100-% inhibition; where A=the amount of urea found after incubation with the compound, B=the amount of urea found in the non-treated soil, and C=the amount of urea added.

**Q.** For `Clc1cccc(C(Cl)(Cl)Cl)n1` [Nitrapyrin], which “Concentration of nitrite nitrogen” value ([1]; week 0) is on record?
**A.** 6 ppm

**Q.** And the “Concentration of nitrite nitrogen” value ([1]; week 1)?
**A.** 6 ppm

**Q.** What about the “Concentration of nitrite nitrogen” value ([1]; week 2) of the same molecule?
**A.** 3 ppm

**Q.** And the “Concentration of nitrite nitrogen” value ([1]; week 4)?
**A.** 5 ppm

**Q.** And the “Concentration of nitrite nitrogen” value ([1]; week 7)?
**A.** -1 ppm

**Q.** And the “Concentration of nitrite nitrogen” value ([1]; week 9)?
**A.** 8 ppm

**Q.** What about the “Concentration of nitrite nitrogen” value ([1]; week 12) of the same molecule?
**A.** -10 ppm

**Q.** And the “Concentration of nitrite nitrogen” value ([1]; week 16)?
**A.** 15 ppm

**Q.** What about the “Concentration of nitrite nitrogen” value ([1]; week 20) of the same molecule?
**A.** 34 ppm

**Q.** And the “Nitrification (percent nitrified)” value ([2]; by the 16th week)?
**A.** 65%

**Q.** What about the “Nitrification (percent nitrified)” value ([2]; by the 20th week) of the same molecule?
**A.** 87%

**Q.** What about the “Time through which nitrification is delayed or inhibited” value ([2]; 0.5 ppm) of the same molecule?
**A.** 12 weeks

**Q.** And the “Concentration of nitrate nitrogen” value ([2]; week 0)?
**A.** 18 PPM

**Q.** And the “Recovery of Ammonium Nitrogen” value ([2]; week 0)?
**A.** 193 PPM

**Q.** And the “Concentration of nitrate nitrogen” value ([2]; week 1)?
**A.** 11 PPM

**Q.** And the “Recovery of Ammonium Nitrogen” value ([2]; week 1)?
**A.** 155 PPM

**Q.** What about the “Concentration of nitrate nitrogen” value ([2]; week 2) of the same molecule?
**A.** 23 PPM

**Q.** And the “Recovery of Ammonium Nitrogen” value ([2]; week 2)?
**A.** 177 PPM

**Q.** What about the “Concentration of nitrate nitrogen” value ([2]; week 4) of the same molecule?
**A.** 21 PPM

**Q.** What about the “Recovery of Ammonium Nitrogen” value ([2]; week 4) of the same molecule?
**A.** 185 PPM

**Q.** And the “Concentration of nitrate nitrogen” value ([2]; week 7)?
**A.** 25 PPM

**Q.** And the “Recovery of Ammonium Nitrogen” value ([2]; week 7)?
**A.** 188 PPM

**Q.** What about the “Concentration of nitrate nitrogen” value ([2]; week 9) of the same molecule?
**A.** 39 PPM

**Q.** And the “Recovery of Ammonium Nitrogen” value ([2]; week 9)?
**A.** 174 PPM

**Q.** What about the “Concentration of nitrate nitrogen” value ([2]; week 12) of the same molecule?
**A.** 49 PPM

**Q.** And the “Recovery of Ammonium Nitrogen” value ([2]; week 12)?
**A.** 184 PPM

**Q.** And the “Concentration of nitrate nitrogen” value ([2]; week 16)?
**A.** 148 PPM

**Q.** And the “Recovery of Ammonium Nitrogen” value ([2]; week 16)?
**A.** 70 PPM

**Q.** And the “Concentration of nitrate nitrogen” value ([2]; week 20)?
**A.** 163 PPM

**Q.** And the “Recovery of Ammonium Nitrogen” value ([2]; week 20)?
**A.** 25 PPM

**Q.** And the “AVERAGE YIELD 4-REPLICATES” value ([3]; N 84 kg/ha as NH3)?
**A.** 160.1 HECTOLITERS/HECTARE

**Q.** What about the “AVERAGE YIELD 4-REPLICATES” value ([3]; N 168 kg/ha as NH3) of the same molecule?
**A.** 167.0 HECTOLITERS/HECTARE

**Q.** And the “AVERAGE YIELD 4-REPLICATES” value ([4]; N 84 kg/ha)?
**A.** 133.4 HECTOLITERS/HECTARE

**Q.** What about the “AVERAGE YIELD 4-REPLICATES” value ([4]; N 168 kg/ha) of the same molecule?
**A.** 148.8 HECTOLITERS/HECTARE

**Q.** What about the “Ammonium Recovery, reported as nitrogen” value ([5]; week 0) of the same molecule?
**A.** 194 ppm

**Q.** And the “Nitrate, reported as nitrogen” value ([5]; week 0)?
**A.** 20 ppm

**Q.** And the “Ammonium Recovery, reported as nitrogen” value ([5]; week 1)?
**A.** 188 ppm

**Q.** What about the “Nitrate, reported as nitrogen” value ([5]; week 1) of the same molecule?
**A.** 18 ppm

**Q.** And the “Ammonium Recovery, reported as nitrogen” value ([5]; week 2)?
**A.** 195 ppm

**Q.** What about the “Nitrate, reported as nitrogen” value ([5]; week 2) of the same molecule?
**A.** 15 ppm

**Q.** What about the “Ammonium Recovery, reported as nitrogen” value ([5]; week 4) of the same molecule?
**A.** 200 ppm

**Q.** What about the “Nitrate, reported as nitrogen” value ([5]; week 4) of the same molecule?
**A.** 22 ppm

**Q.** What about the “Ammonium Recovery, reported as nitrogen” value ([5]; week 7) of the same molecule?
**A.** 179 ppm

**Q.** What about the “Nitrate, reported as nitrogen” value ([5]; week 7) of the same molecule?
**A.** 48 ppm

**Q.** And the “Ammonium Recovery, reported as nitrogen” value ([5]; week 9)?
**A.** 141 ppm

**Q.** What about the “Nitrate, reported as nitrogen” value ([5]; week 9) of the same molecule?
**A.** 79 ppm

**Q.** And the “Ammonium Recovery, reported as nitrogen” value ([5]; week 12)?
**A.** 125 ppm

**Q.** And the “Nitrate, reported as nitrogen” value ([5]; week 12)?
**A.** 114 ppm

**Q.** What about the “Ammonium Recovery, reported as nitrogen” value ([5]; week 16) of the same molecule?
**A.** 127 ppm

**Q.** What about the “Nitrate, reported as nitrogen” value ([5]; week 16) of the same molecule?
**A.** 126 ppm

**Q.** And the “Ammonium Recovery, reported as nitrogen” value ([5]; week 20)?
**A.** 91 ppm

**Q.** What about the “Nitrate, reported as nitrogen” value ([5]; week 20) of the same molecule?
**A.** 128 ppm

**Q.** What about the “Nitrite, reported as nitrogen” value ([6]; week 0) of the same molecule?
**A.** 6 ppm

**Q.** And the “Nitrite, reported as nitrogen” value ([6]; week 1)?
**A.** 3 ppm

**Q.** What about the “Nitrite, reported as nitrogen” value ([6]; week 2) of the same molecule?
**A.** 12 ppm

**Q.** And the “Nitrite, reported as nitrogen” value ([6]; week 4)?
**A.** 9 ppm

**Q.** And the “Nitrite, reported as nitrogen” value ([6]; week 7)?
**A.** -27 ppm

**Q.** And the “Nitrite, reported as nitrogen” value ([6]; week 9)?
**A.** 14 ppm

**Q.** And the “Nitrite, reported as nitrogen” value ([6]; week 12)?
**A.** 14 ppm

**Q.** And the “Nitrite, reported as nitrogen” value ([6]; week 16)?
**A.** 7 ppm

**Q.** And the “Nitrite, reported as nitrogen” value ([6]; week 20)?
**A.** 27 ppm

**Q.** And the “Corn Leaf Tissue Analysis (total N)” value ([7]; NH3 84 kg N/ha)?
**A.** 232 10^2 ug/g

**Q.** What about the “Corn Leaf Tissue Analysis (total N)” value ([7]; NH3 168 kg N/ha) of the same molecule?
**A.** 291 10^2 ug/g

**Q.** And the “More nitrogen in leaf tissue than control plots with similar nitrogen” value ([7]; silt loam plots)?
**A.** 15-25%

**Q.** For `NP(N)(=O)Oc1ccccc1` [PPD, Phenylphosphorodiamide], which “% INHIBITION (urease)” value ([8]; (A-B)/(C-B) X 100, urea 1000 ug/g soil) is on record?
**A.** 63%

**Q.** What about the “AVERAGE amount of urea remaining” value ([8]; average of 3 replicates, urea 1000 ug/g soil) of the same molecule?
**A.** 769 µg/g

**Q.** And the “AMOUNT REMAINING (urea)” value ([8]; single replicates, urea 1000 ug/g soil)?
**A.** 755 µg/g and 767 µg/g and 770 µg/g
